Activity calls are given as the source filed them. Cut-off read from the data, not from the text of the source: actives have a measured EC50 and inactives only a lower limit.

The test system of assay [1] is H4. Nature of the assay: Luminescence Cell-Based Dose Response HTS to Identify Activators of 5'UTR Stem-Loop Driven Prion Protein mRNA Translation in H4 Neuroglioblastoma Cells. [Related pubchem assays: 1829 (Project Summary), 1814 (Primary HTS)]. As to conditions: Homo sapiens. It counts as functional.
The target of assay [2] is T1, Heat shock factor protein 1 (Mus musculus, UniProt P38532).
T1 sequence (P38532 whole entry): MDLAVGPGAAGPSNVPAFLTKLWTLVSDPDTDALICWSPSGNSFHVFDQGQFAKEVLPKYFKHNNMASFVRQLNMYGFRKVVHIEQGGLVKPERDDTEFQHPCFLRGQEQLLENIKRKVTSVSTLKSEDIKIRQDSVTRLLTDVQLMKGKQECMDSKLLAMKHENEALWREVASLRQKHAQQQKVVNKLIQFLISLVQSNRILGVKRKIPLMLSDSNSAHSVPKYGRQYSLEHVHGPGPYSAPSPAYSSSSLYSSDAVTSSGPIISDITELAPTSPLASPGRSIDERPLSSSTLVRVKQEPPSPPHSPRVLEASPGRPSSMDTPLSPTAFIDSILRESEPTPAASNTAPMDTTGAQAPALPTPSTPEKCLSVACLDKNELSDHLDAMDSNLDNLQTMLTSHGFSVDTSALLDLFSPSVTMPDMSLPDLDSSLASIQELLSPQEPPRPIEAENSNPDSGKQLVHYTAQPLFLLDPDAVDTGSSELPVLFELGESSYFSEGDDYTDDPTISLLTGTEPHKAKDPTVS
Nature of the assay: inhibition of MG132-induced HSE-luciferase signal, confirmation, cell-based, NIH3T3, luminescence, dose retest (AID 2382).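 Note: NIH3T3 fibroblasts with HSF1-driven luciferase reporter stressed by proteasome inhibitor MG132; luminescence from HSF1-driven luciferase expression after 8 hours of MG132 stress.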 It counts as functional.

In assay [3] the target is T2, Streptokinase A (Streptococcus pyogenes serotype M1, UniProt P10520).
T2 sequence (P10520 whole entry): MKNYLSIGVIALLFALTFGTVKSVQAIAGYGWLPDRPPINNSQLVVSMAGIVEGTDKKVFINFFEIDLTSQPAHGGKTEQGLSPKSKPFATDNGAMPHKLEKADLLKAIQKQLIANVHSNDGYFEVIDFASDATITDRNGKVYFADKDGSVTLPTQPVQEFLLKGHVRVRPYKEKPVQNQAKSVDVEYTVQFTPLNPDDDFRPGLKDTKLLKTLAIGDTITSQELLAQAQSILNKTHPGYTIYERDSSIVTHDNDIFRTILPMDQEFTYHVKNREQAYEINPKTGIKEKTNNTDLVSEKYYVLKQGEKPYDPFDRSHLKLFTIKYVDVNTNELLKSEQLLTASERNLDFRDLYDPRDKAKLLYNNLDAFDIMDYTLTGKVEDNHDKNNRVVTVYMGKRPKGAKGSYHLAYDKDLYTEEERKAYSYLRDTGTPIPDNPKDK
Nature of the assay: S. pyogenes streptokinase expression inhibitors, potency, dose response, plasminogen activation absorbance, OD405 (AID 1914).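 Note: secreted streptokinase activity via plasminogen activation per viability signal from cell pellet.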 It counts as functional, Streptococcus pyogenes M1 GAS.

Assay [4] deals with Streptococcus. Nature of the assay: Group A Streptococcus viability loss, dose response, counter-screen for streptokinase expression inhibitor project, luminescence, BacTiterGlo (AID 1915).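 Note: potency for reduction of bacterial viability or growth.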 The assay is classed as functional, organism-based.
The subject of assay [5] is Streptococcus sp. 'group A'. Nature of the assay: growth inhibition of control SK(-) GAS strain, dose response, counter-screen for streptokinase expression inhibitor project, luminescence, kanamycin, BacTiterGlo, confirmation (AID 1900). It counts as functional, organism-based. Background: The purpose of a counterscreen is to sort out artefacts and off-target activity.

For orientation: EC50 means the concentration at which the effect is half-maximal. As to `O=C(NC1CCCCC1)C(=S)NC1CCCCC1`, the EC50 in assay [1] is 2.43 µM (active). On to `O=C(CN1C(=O)NC(Cc2ccccc2)C1=O)Nc1ccc(OC(F)F)cc1` (stereo not drawn), for which the EC50 in assay [2] is > 195 µM (not active).

As for `C=CCSc1nc(-c2ccccc2)c2cc(Cl)ccc2n1`, the concentration for a half-maximal effect (EC50) in assay [3] was 29.4 µM (active); in assay [4], 46.4 µM (active); in assay [5] it was 15 µM (active). On to `CN1CCN(S(=O)(=O)c2ccc(Oc3ccc(F)c(Cl)c3)nc2)CC1`, for which the EC50 in assay [2] is reported as > 195 µM (not active).

With `Cc1ccc(Cn2c(=O)n(Cc3ccco3)c(=O)c3ccccc32)cc1`, the EC50 is > 150 µM (not active) in assay [3], > 150 µM (not active) in assay [4] and 21.1 µM (active) in assay [5]. Turning to `Cc1cc(C)c2c(n1)sc1c(O)nc(SCc3ccccc3)nc12`, in assay [2], the EC50 is reported as > 195 µM (not active).

Take `COc1ccc(C2/C(=C(\O)c3ccccc3)C(C)=Nc3nc4ccccc4n32)c(OC)c1` (stereo not drawn): the EC50 in assay [3] was > 150 µM (not active); in assay [4], 37.3 µM (active); in assay [5], 14.5 µM (active). As for `COc1cccc(-n2nc(-c3ccnn3-c3cccc(Cl)c3)c(=O)n(C)c2=O)c1`, the concentration for a half-maximal effect (EC50) in assay [2] is recorded as > 195 µM (not active). `CCCn1c(N2CCN(CC(=O)NCc3cccs3)CC2)nc2ccccc21`: the EC50 in assay [2] is > 195 µM (not active). Turning to `COc1ccc(C(=O)CSc2nnc(CNC(=O)c3ccc(S(=O)(=O)N(C)C)cc3)o2)cc1`, the concentration giving a half-maximal response (EC50) in assay [3], in assay [4] and in assay [5] was > 150 µM (not active) in each case.

For the molecule `CC(C)(C)c1csc(NC2=NS(=O)(=O)c3ccccc32)n1`, in assay [1], the EC50 was > 120 µM (not active). For `CNC(=O)c1ccsc1NC(=O)c1ccc(Cl)s1`, in assay [2], the EC50 is given as > 195 µM (not active). The same measure, in the same setting: the same measure for `O=C(c1cc(Br)c[nH]1)N1CCSCC1`: > 195 µM (not active); for `CN(CC(=O)Nc1ccc(F)cc1)C(=O)COC(=O)c1cc(S(=O)(=O)N(C)C)ccc1N1CCCC1`: > 195 µM (not active). As for `CCN(c1ccc(OC)cc1)S(=O)(=O)c1nnc(NC(=O)c2ccccc2Cl)s1`, the EC50 in assay [3] was 5.58 µM (active); in assay [4], 99.3 µM (active); in assay [5] it was 9.51 µM (active). Regarding `CCCCOc1ccc(/N=C/c2ccc[nH]2)cc1`, the EC50 in assay [2] was 33 µM (active).

For the molecule `CCOc1ccc(N(CC(=O)NN=C2CCCC2)S(C)(=O)=O)cc1`, the EC50 in assay [2] was > 195 µM (not active).

For the molecule `COc1ccc(/C(C)=N/NC(=O)CNC(=O)/C=C\c2ccccc2)c(OC)c1`, the concentration for a half-maximal effect (EC50) in assay [2] was > 195 µM (not active). Take `O=C(OC(C(=O)NC1CCCC1)c1ccncc1)C1=Cc2ccccc2OC1` (stereo not drawn): the EC50 in assay [2] is reported as > 195 µM (not active). With `COCCn1c(N)c(Sc2ccccc2[N+](=O)[O-])c(=O)[nH]c1=O`, the EC50 in assay [2] was > 195 µM (not active). Take `COc1ccc(-c2cc(C3CCN(c4ncccc4[N+](=O)[O-])CC3)[nH]n2)cc1`: the concentration for a half-maximal effect (EC50) was > 150 µM (not active) in assay [3], 13 µM (active) in assay [4] and 4.96 µM (active) in assay [5].

For the molecule `Cc1onc(-c2ccccc2Cl)c1C(=O)Nc1ccc(OCC(=O)N2CCOCC2)cc1`, the EC50 in assay [2] was > 195 µM (not active). With `O=C(CSc1nnc(CNC(=O)c2ccc(F)cc2)o1)NCc1ccccc1`, the EC50 in assay [3], in assay [4] and in assay [5] was > 150 µM (not active) throughout. Turning to `COc1ccc(CCNCC(O)Cn2ccc3ccccc32)cc1OC` (stereo not drawn), the EC50 in assay [2] was > 100 µM (not active).

For `COc1ccc(CCNCc2ccsc2)cc1OC`, the EC50 in assay [2] is reported as > 195 µM (not active).

Regarding `Cc1ccc(Cn2c(Sc3ncccn3)nc3c2c(=O)[nH]c(=O)n3C)cc1`, the EC50 in assay [2] is > 195 µM (not active). In the case of `CCOC(=O)c1cccc(NC(=S)N2CCN(c3ncc4c(=O)c(C(=O)O)cn(CC)c4n3)CC2)c1`, the EC50 was > 150 µM (not active) in assay [3], 29.9 µM (active) in assay [4] and 5.98 µM (active) in assay [5].

For the origin of these results see ChEMBL document CHEMBL1201862, “PubChem BioAssay data set” (2004).
